# Like-named read-outs stand apart in the source and are kept apart here.
# Key:
# MCF-7 = experiment: MTT cancer cell proliferation assay, MCF-7; type: cell-based, human
# Method: (§1) In Vitro Determination of Effects of Synthesized Diterpenoids on Cancer Cell Proliferation. Breast cancer cell lines MCF-7, MDA-MB-231, […] and MCF/ADR were seeded in 96-well plates at a density of 1×10^4 cells/well and treated with DMSO and 0.01, 0.1, 1, 5, 10, and 100 μM of individual compound for 48 h, and then 20 μL of 3-(4,5-dimethylthiazol-2-yl)-2,5-diphenyltetrazolium bromide (MTT) (5 mg/mL in PBS) was added to each well and further incubated for another 4 h. Then MTT solution was removed, and 150 μL of DMSO was added to each well. Absorbance of all wells was determined by measuring OD at 550 nm after a 10 min incubation on a 96-well GlowMaxate absorbance reader (Promega, Madison, Wis.). Each individual compound was tested in quadruplicate wells for each concentration.
# (§2) The growth inhibitory effects of the newly generated pyran-fused diterpenoids were evaluated in four breast cancer cell lines MCF-7 (ER-positive), MDAMB-231 (ER-negative and triple-negative), MDA-MB-468 (ER-negative and triple-negative) as well as MCF-7/ADR (adriamycin-resistant) using MTT assays as described in the Experimental Section.
# AsPC1 = experiment: Cancer cell proliferation assay, AsPC1; type: cell-based; conditions: Homo sapiens
# Method: (§3) In Vitro Determination of Effects of Synthesized Diterpenoids on Cancer Cell Proliferation. […] Then MTT solution was removed, and 150 μL of DMSO was added to each well. Absorbance of all wells was determined by measuring OD at 550 nm after a 10 min incubation on a 96-well GlowMaxate absorbance reader (Promega, Madison, Wis.). Each individual compound was tested in quadruplicate wells for each concentration.
# Panc-1 = experiment: Cancer cell proliferation assay, Panc-1; type: cell-based; conditions: Homo sapiens
# Method: as §3
# MDA-MB-231 = experiment: MTT cancer cell proliferation assay, MDA-MB-231; type: cell-based, human
# Method: as §1, §2
# DU145 = experiment: Cancer cell proliferation assay, DU145; type: cell-based; conditions: Homo sapiens, DU-145
# MCF-7/ADR = experiment: MTT growth inhibition, drug-resistant MCF-7/ADR; type: cell-based, human; conditions: Table 3, adriamycin-resistant, MTT 48 h, mean ± SE of three experiments
# Method: as §1
# (§4) The growth inhibitory effects of the newly generated pyran-fused diterpenoids were evaluated in four breast cancer cell lines MCF-7 (ER-positive), MDAMB-231 (ER-negative and triple-negative), MDA-MB-468 (ER-negative and triple-negative) as well as MCF-7/ADR (adriamycin-resistant) using MTT assays as described in the Experimental Section. The capability of these new molecules to inhibit the growth of cancer cells was summarized in Table 3 and compared with that of adriamycin and 1 spontaneously.
# MDA-MB-468 = experiment: MTT cancer cell proliferation assay, MDA-MB-468; type: cell-based, human; conditions: Table 3, pyran-fused diterpenoids, MTT 48 h, mean ± SE of three experiments
# Method: as §1, §4
# [1] = Homo sapiens, MCF7, Table 1a, breast cancer, read-out: IC50 (μM) MCF-7
# [2] = Homo sapiens, MCF7, Table 2b, mean of at least three experiments, read-out: Effect on proliferation MCF-7 (ER positive) (IC50)
# [3] = ASPC1, Table 1a, pancreatic cancer, read-out: IC50 (μM) AsPC1
# [4] = ASPC1, Table 2b, mean of at least three experiments, read-out: Effect on proliferation AsPC1 (IC50)
# [5] = PANC-1, Table 1a, pancreatic cancer, read-out: IC50 (μM) Panc-1
# [6] = PANC-1, Table 2b, mean of at least three experiments, read-out: Effect on proliferation Panc-1 (IC50)
# [7] = Homo sapiens, MDA-MB-231, Table 1a, breast cancer, read-out: IC50 (μM) MDA-MB-231
# [8] = Homo sapiens, MDA-MB-231, Table 2b, mean of at least three experiments, read-out: Effect on proliferation MDA-MB-231 (ER negative) (IC50)
# [9] = Table 1a, prostate cancer, read-out: IC50 (μM) DU145
# [10] = Table 2b, mean of at least three experiments, read-out: Effect on proliferation DU145 (IC50)
# [11] = Homo sapiens, MCF7, 48 h, Table 3, pyran-fused diterpenoids, MTT 48 h, mean ± SE of three experiments, read-out: IC50 (μM) MCF-7
# [12] = Homo sapiens, NCI/ADR-RES, 48 h
# [13] = Homo sapiens, MDA-MB-231, 48 h, Table 3, pyran-fused diterpenoids, MTT 48 h, mean ± SE of three experiments, read-out: IC50 (μM) MDA-MB-231
smiles,measurement,setting,value
"C=C1C(=O)[C@@]23C(CC[C@H]1[C@H]2O)[C@@]12CO[C@]3(O)[C@@H](O)C1C(C)(C)Cc1sc(NC(C)=O)nc12 (stereo partly drawn) [CYD-6-21, N-((6S,7S,7aR,10R,12bR,15R)-6,7,15-trihydroxy-5,5-dimethyl-9-methylene-8-oxo-5,5a,6,7,8,9,10,11,12,12a-decahydro-4H-7,12b-(epoxymethano)-7a,10-methanocyclohepta[7,8]naphtho[1,2-d]thiazol-2-yl)acetamide]",IC50,MCF-7; [1],1.99 µM
same,IC50,MCF-7; [2],2 µM
same,IC50,AsPC1; [3],4.83 µM
same,IC50,AsPC1; [4],4.8 µM
same,IC50,Panc-1; [5],6.71 µM
same,IC50,Panc-1; [6],6.7 µM
same,IC50,MDA-MB-231; [7],6.82 µM
same,IC50,MDA-MB-231; [8],6.8 µM
same,IC50,DU145; [9],6.34 µM
same,IC50,DU145; [10],6.3 µM
C=C1C(=O)[C@@]23[C@@H]4OC(C)(C)O[C@@]25OC[C@]2(C6=C(CC[C@H](OCCCCO)O6)CC(C)(C)[C@H]2[C@@H]5O)[C@@H]3CC[C@@H]14 [CYD-8-67-1],IC50,MCF-7; [11],2.14 ± 1.11 µM
same,IC50,MCF-7/ADR; [12],4.51 ± 1.54 µM
same,IC50,MDA-MB-231; [13],3.18 ± 0.24 µM
same,IC50,"MDA-MB-468; Homo sapiens, MDA-MB-468, 48 h",2.65 ± 0.14 µM
C=CCO[C@H]1CCC2=C(O1)[C@@]13CO[C@@]4(OC(C)(C)O[C@@H]5[C@H]6CC[C@@H]1[C@]54C(=O)C6=C)[C@@H](O)[C@@H]3C(C)(C)C2 [CYD-8-66-1],IC50,MCF-7; [11],4.32 ± 1.82 µM
same,IC50,MCF-7/ADR; [12],4.31 ± 2.43 µM
same,IC50,MDA-MB-231; [13],7.12 ± 0.22 µM
same,IC50,"MDA-MB-468; Homo sapiens, MDA-MB-468, 48 h",4.89 ± 0.85 µM
"COc1cccc2c1C(=O)c1c(O)c3c(c(O)c1C2=O)C[C@@](O)(C(=O)CO)C[C@@H]3O[C@H]1C[C@H](N)[C@H](O)[C@H](C)O1 [Adriamycin, reference compound]",IC50,MCF-7; [11],0.67 ± 0.45 µM
same,IC50,MCF-7/ADR; [12],> 10 µM
same,IC50,MDA-MB-231; [13],2.33 ± 0.22 µM
same,IC50,"MDA-MB-468; Homo sapiens, MDA-MB-468, 48 h",0.65 ± 0.26 µM
C=C1C(=O)[C@@]23[C@@H]4OC(C)(C)O[C@@]25OC[C@]2(C6=C(CC[C@H](OCC)O6)CC(C)(C)[C@H]2[C@@H]5O)[C@@H]3CC[C@@H]14 [CYD-8-69-2],IC50,MCF-7; [11],2.41 ± 1.86 µM
same,IC50,MCF-7/ADR; [12],6.79 ± 3.46 µM
same,IC50,MDA-MB-231; [13],3.73 ± 0.28 µM
same,IC50,"MDA-MB-468; Homo sapiens, MDA-MB-468, 48 h",5.81 ± 1.92 µM
C=C1C(=O)[C@@]23[C@@H]4OC(C)(C)O[C@@]25OC[C@]2(C6=C(CC[C@H](OCC(C)C)O6)CC(C)(C)[C@H]2[C@@H]5O)[C@@H]3CC[C@@H]14 [CYD-8-52-1],IC50,MCF-7; [11],2.24 ± 1.33 µM
same,IC50,MCF-7/ADR; [12],4.42 ± 0.9 µM
same,IC50,MDA-MB-231; [13],1.76 ± 0.22 µM
same,IC50,"MDA-MB-468; Homo sapiens, MDA-MB-468, 48 h",2.62 ± 0.08 µM
"C=C1C(=O)[C@]23[C@H](O)[C@H]1CC[C@H]2[C@@]12CO[C@]3(O)[C@@H](O)[C@@H]1C(C)(C)Cc1sc(N)nc12 [CYD-5-41, (5aR,6S,7S,7aR,10S,12aS,12bR,15R)-2-amino-6,7,15-trihydroxy-5,5-dimethyl-9-methylene-5,5a,6,7,10,11,12,12a-octahydro-4H-7,12b-(epoxymethano)-7a,10-methanocyclohepta[7,8]naphtho[1,2-d]thiazol-8(9H)-one]",IC50,MCF-7; [1],1.02 µM
same,IC50,MCF-7; [2],1 µM
same,IC50,AsPC1; [3],5.58 µM
same,IC50,AsPC1; [4],5.6 µM
same,IC50,Panc-1; [5],6.13 µM
same,IC50,Panc-1; [6],6.1 µM
same,IC50,MDA-MB-231; [7],3.24 µM
same,IC50,MDA-MB-231; [8],3.2 µM
same,IC50,DU145; [9],3.46 µM
same,IC50,DU145; [10],3.5 µM
C=C1C(=O)[C@@]23[C@@H]4OC(C)(C)O[C@@]25OC[C@]2(C6=C(CC[C@@H](OCCCCO)O6)CC(C)(C)[C@H]2[C@@H]5O)[C@@H]3CC[C@@H]14 [CYD-8-67-2],IC50,MCF-7; [11],5.17 ± 2.9 µM
same,IC50,MCF-7/ADR; [12],5.34 ± 1.29 µM
same,IC50,MDA-MB-231; [13],5.89 ± 2.04 µM
same,IC50,"MDA-MB-468; Homo sapiens, MDA-MB-468, 48 h",5.96 ± 0.29 µM
C=C1C(=O)[C@@]23[C@@H]4OC(C)(C)O[C@@]25OC[C@]2(C6=C(CC[C@@H](OCC(C)C)O6)CC(C)(C)[C@H]2[C@@H]5O)[C@@H]3CC[C@@H]14 [CYD-8-52-2],IC50,MCF-7; [11],5.83 ± 3.75 µM
same,IC50,MCF-7/ADR; [12],10.3 ± 1.65 µM
same,IC50,MDA-MB-231; [13],8.18 ± 0.57 µM
same,IC50,"MDA-MB-468; Homo sapiens, MDA-MB-468, 48 h",6.95 ± 1.01 µM
C=CCO[C@@H]1CCC2=C(O1)[C@@]13CO[C@@]4(OC(C)(C)O[C@@H]5[C@H]6CC[C@@H]1[C@]54C(=O)C6=C)[C@@H](O)[C@@H]3C(C)(C)C2 [CYD-8-66-2],IC50,MCF-7; [11],2.1 ± 0.98 µM
same,IC50,MCF-7/ADR; [12],3.19 ± 0.54 µM
same,IC50,MDA-MB-231; [13],3.3 ± 0.23 µM
same,IC50,"MDA-MB-468; Homo sapiens, MDA-MB-468, 48 h",4.37 ± 1.48 µM
C=C1C(=O)[C@@]23[C@@H]4OC(C)(C)O[C@@]25OC[C@]2(C6=C(CC[C@H](OCCCl)O6)CC(C)(C)[C@H]2[C@@H]5O)[C@@H]3CC[C@@H]14 [CYD-8-65-1],IC50,MCF-7; [11],2.31 ± 1.02 µM
same,IC50,MCF-7/ADR; [12],3.08 ± 1.12 µM
same,IC50,MDA-MB-231; [13],3.3 ± 1.81 µM
same,IC50,"MDA-MB-468; Homo sapiens, MDA-MB-468, 48 h",2.99 ± 1.01 µM
C=C1C(=O)[C@@]23[C@@H]4OC(C)(C)O[C@@]25OC[C@]2(C6=C(CC[C@@H](OCC)O6)CC(C)(C)[C@H]2[C@@H]5O)[C@@H]3CC[C@@H]14 [CYD-8-45-1],IC50,"MCF-7; Table 3, pyran-fused diterpenoids, MTT 48 h, mean ± SE of three experiments, read-out: IC50 (μM) MCF-7",3.52 ± 2.15 µM
same,IC50,MCF-7/ADR,4.65 ± 3.15 µM
same,IC50,"MDA-MB-231; Table 3, pyran-fused diterpenoids, MTT 48 h, mean ± SE of three experiments, read-out: IC50 (μM) MDA-MB-231",6.13 ± 2.43 µM
same,IC50,MDA-MB-468,5.4 ± 0.98 µM
"C=C1C(=O)[C@@]23C(CC[C@H]1[C@H]2O)[C@@]12CO[C@]3(O)[C@@H](O)C1C(C)(C)Cc1sc(N3CCCCCC3)nc12 (stereo partly drawn) [CYD-6-26-2, (6S,7S,7aR,10R,12bR,15R)-2-(azepan-1-yl)-6,7,15-trihydroxy-5,5-dimethyl-9-methylene-5,5a,6,7,10,11,12,12a-octahydro-4H-7,12b-(epoxymethano)-7a,10-methanocyclohepta[7,8]naphtho[1,2-d]thiazol-8(9H)-one]",IC50,MCF-7; [1],1.15 µM
same,IC50,MCF-7; [2],1.2 µM
same,IC50,AsPC1; [3],2.3 µM
same,IC50,AsPC1; [4],2.3 µM
same,IC50,Panc-1; [5],6.29 µM
same,IC50,Panc-1; [6],6.3 µM
same,IC50,MDA-MB-231; [7],6.82 µM
same,IC50,MDA-MB-231; [8],6.8 µM
same,IC50,DU145; [9],4.74 µM
same,IC50,DU145; [10],4.7 µM
"C=C1C(=O)[C@]23[C@H](O)[C@H]1CC[C@H]2[C@]12C=CCC(C)(C)[C@H]1[C@H](O)[C@@]3(O)OC2 [CYD-6-82, (4aR,5S,6S,6aR,9S,11aS,11bR,14R)-5,6,14-trihydroxy-4,4-dimethyl-8-methylene-4,4a,5,6,9,10,11,11a-octahydro-3H-6,11b-(epoxymethano)-6a,9-methanocyclohepta[a]naphthalen-7(8H)-one]",IC50,"MCF-7; Homo sapiens, MCF7, read-out: IC50 (μM) MCF-7",0.79 µM
same,IC50,"AsPC1; ASPC1, read-out: IC50 (μM) AsPC1",1.09 µM
same,IC50,"Panc-1; PANC-1, read-out: IC50 (μM) Panc-1",1.19 µM
same,IC50,"MDA-MB-231; Homo sapiens, MDA-MB-231, read-out: IC50 (μM) MDA-MB-231",3.9 µM

# From patent US9725460B2, “Oridonin analogs, compositions, and methods related thereto” (THE BOARD OF REGENTS OF THE UNIVERSITY OF TEXAS SYSTEM, priority 2013, dated 2017)
